In brackets after ≈: the same amount, converted by molar mass.
Assays:
Type in all cases: functional
Details in all cases: read-out: ED50 (the source's name)
[1] = tested on: A549; assay: Cytotoxicity against human A549 cells
[2] = tested on: SK-OV-3; assay: Cytotoxicity against human SK-OV-3 cells
[3] = tested on: SK-MEL-2; assay: Cytotoxicity against human SK-MEL-2 cells
[4] = tested on: XF498; assay: Cytotoxicity against human XF498 cells
[5] = tested on: HCT-15; assay: Cytotoxicity against human HCT15 cells

| SMILES | EC50 [1] [µg/mL] | EC50 [2] [µg/mL] | EC50 [3] [µg/mL] | EC50 [4] [µg/mL] | EC50 [5] [µg/mL] |
| --- | --- | --- | --- | --- | --- |
| CCCCCCCC#CC#C/C=C/C(C)=O [MONTIPORYNE A] | > 50 | 3.2 (≈ 14.8 µM) | 1.4 (≈ 6.47 µM) | 1.9 (≈ 8.78 µM) | 3.7 (≈ 17.1 µM) |
| C=CCCCCCCCC#CC#C/C=C/C(C)=O [MONTIPORYNE C] | > 50 | 2.5 (≈ 10.3 µM) | 1.5 (≈ 6.19 µM) | 3.2 (≈ 13.2 µM) | 5.2 (≈ 21.5 µM) |
| C=CCCCCCCCC#CC#C/C=C\C(C)=O [MONTIPORYINE D] | > 50 | 45.1 (≈ 186 µM) | 43.1 (≈ 178 µM) | > 50 | > 50 |
| CCCCCCCC#CC#CC1=CC(=O)NCCC1 [MONTIPORYINE E] | > 50 | > 50 | > 50 | > 50 | > 50 |
| CCCCCCCC#CC#C/C=C\C(C)=O [MONTIPORYNE B] | > 50 | 25.9 (≈ 120 µM) | 42.6 (≈ 197 µM) | > 50 | > 50 |
| CCCCCCCC#CC#CC1CC(=O)C=C(C)C1 (stereo not given) [MONTIPORYINE F] | > 50 | 29.2 (≈ 114 µM) | 36.7 (≈ 143 µM) | 31.3 (≈ 122 µM) | 45.1 (≈ 176 µM) |

Reference: ChEMBL document CHEMBL1155622, “New acetylenic compounds from the stony coral Montipora sp” (2000)
